Data on four compounds can be found in paper PMC3229842 (Chemmedchem, 2011).

Where two headings read alike, the source gives them in different places. Bounds are passed on as bounds.

In assay [1] the test system is T. brucei (S427 single marker line). The experiment in a line: microbe, parasite or virus in culture. It counts as cell-based, Trypanosoma brucei. To be noted: for EC50: Trypanosoma brucei.
Assay [2] deals with MRC-5 cell line (normal diploid human fibroblasts). The experiment in a line: cells. It counts as cell-based. To be noted: MRC5, read-out: pEC50 MRC-5 (converted).
The next assay deals with T. brucei. To be noted: cited from earlier work.

With `O=C(Cc1ccc(Cl)c(Cl)c1)Nc1ccccc1N1CCCC1` [Compound 44, 2-(3,4-Dichlorophenyl)-N-[2-(pyrrolidin-1-yl)phenyl]acetamide], the “fold loss of potency relative to 38” value in assay [1] is reported as above 66 fold. The EC50 in assay [1] (72 h, read-out: EC50 T. b. brucei) is 17700 nM. `N=C(N)c1ccc(OCCCCCOc2ccc(C(=N)N)cc2)cc1` [Pentamidine]: the EC50 in assay [1] (read-out: pEC50 T. brucei (converted)) was 3.55 nM. Consider `COc1cccc2c1C(=O)c1c(O)c3c(c(O)c1C2=O)C[C@@](O)(C(=O)CO)C[C@@H]3O[C@H]1C[C@H](N)[C@H](O)[C@H](C)O1` [doxorubicin], for which, in assay [2], the EC50 was 70.8 nM. Turning to `NCCCC(N)(C(=O)O)C(F)F` (centres unmarked) [eflornithine], the “Hill slope (s)” value with T. brucei was 4.0.
